Experimental data as given in US20220008450A1, “ANTI-HEPATITIS B VIRUS AGENT” (DAIKIN INDUSTRIES, LTD., priority 2018, published 2022).

Key:
HBV = assay: Anti-HBV activity: intracellular HBV DNA by quantitative PCR in HepG2.2.15 cells; assay type: cell-based, hepatitis B virus; conditions: for EC50: Hepatitis B virus, 168 h, HepG2.2.15 cells, intracellular HBV DNA, day 7 after addition, read-out: EC50 (50% effective concentration), anti-HBV activity
Procedure: Anti-HBV activity was evaluated by quantitative PCR for determining the amount of HBV DNA in cells on the seventh day after the addition of the agent, using the HepG2.2.15 cell line of HBV-producing cells obtained by introducing a gene having a length twice that of the HBV genome into the human liver cancer cell line HepG2. For PCR of HBV DNA, a forward primer (HBV-S190F; 5′-GCT CGT GTT ACA GGC GGG-3′: SEQ ID NO: 1) and a reverse primer (HBV-S703R; 5′-GAACCACTGAACAAATGGCACTAGTA-3′: SEQ ID NO: 2) were used. PCR was performed by carrying out a reaction at 95° C. for 10 sec, 62° C. for 10 sec, and 72° C. for 30 sec for 35 cycles.
Specifically, HepG2.2.15 cells were seeded at a concentration of 1×10^5 cells/well. 24 hours later, the compounds of Example 1 and Comparative Example 1 were diluted to have a concentration of 0, 0.49, 0.97, 1.95, 3.90, 7.81, 15.6, 31.3, 62.5, 125, 250, 500, and 1000 nM; and added to the cells. After the cells were cultured for 7 days, each cytoplasmic compartment was collected, and DNA was purified by phenol-chloroform extraction. 20 ng of the purified DNA was used to measure the amount of intracellular HBV DNA by quantitative PCR.
The EC50 (50% effective concentration) was calculated from a graph showing the relationship between the concentration of the compound and anti-HBV activity.

[1] = Cytotoxicity test (WST-1) in HepG2 NTCP-myc cells; assay type: cell-based; conditions: human, 7 days culture, read-out: CC50 (50% cytotoxic concentration)
Procedure: HepG2 NTCP-myc cells were seeded at a concentration of 2×10^4 cells/well. 24 hours later, agents were diluted to have a concentration of 0, 0.49, 0.97, 1.95, 3.90, 7.81, 15.6, 31.3, 62.5, 125, 250, 500, and 1000 nM; and added to the cells. The HepG2 NTCP-myc cells were cultured for 7 days. After the culture, 10 μl of Premix WST-1 Cell Proliferation Assay System (TaKaRa) was added, and the cells were cultured at 37° C. for 2 hours. Thereafter, absorbance was determined at 450 nm using a microplate reader.
The CC50 (50% cytotoxic concentration) was calculated from a graph showing the relationship between the concentration of the compound and cytotoxicity.

HBs antigen = HBs antigen level in HepG2.2.15 culture supernatant by CLIA; assay type: cell-based, hepatitis B virus; conditions: day 4 after addition, compared to Entecavir and Tenofovir disoproxil fumarate (FIG. 2)
Procedure: The HBs antigen level was measured by measuring the culture supernatant on the fourth day after the addition of the agent by chemiluminescent immunoassay (CLIA) using HepG2.2.15, i.e., HBV-producing cells obtained by introducing a gene having a length twice that of the HBV genome into the human liver cancer cell line HepG2.

With `OC[C@H]1O[C@@H](n2cnc3c(Cl)nc(Cl)nc32)[C@@H](F)[C@@H]1O` [Comparative Example 1, 2,6-dichloro-9-((2R,3S,4R,5R)-3-fluoro-4-hydroxy-5-(hydroxymethyl)tetrahydrofuran-2-yl)-9H-purine, reference compound] the EC50 (HBV) was greater than 10 µM.
For `Nc1nc(F)nc2c1ncn2[C@@H]1O[C@H](CO)C(O)C1F` (stereo partly drawn) [Example 1, 2′-deoxy-2′-fluoro-β-2-fluoro-D-adenosine], the “SI (CC50/EC50)” value (HBV; CC50 (HepG2 NTCP-myc) divided by EC50 (HepG2.2.15)) was 213411, the EC50 (HBV) was 0.00158 µM and the CC50 at 7 days [1] was 337 µM. For the same compound, the “HBs antigen level (relative amount of extracellular HBs antigen)” value (HBs antigen) was “remarkably reduced”.
